Experimental data from PMC4383039 (Science translational medicine, 2015).
≈ marks a conversion by molar mass, not a printed value. Like-named read-outs stand apart in the source and are kept apart here. Marks after values point to notes of the source that are not given here.

How the values were obtained:
Mtb H37Rv [1] = assay: microbe, parasite or virus in culture; assay type: cell-based, Mycobacterium tuberculosis; conditions: for MIC50: Mycobacterium tuberculosis, H37RV
InhA [2] = target: T1, InhA (Mycobacterium tuberculosis, UniProt P9WGR1); assay: biochemical
T1 sequence (P9WGR1 whole entry, looked up): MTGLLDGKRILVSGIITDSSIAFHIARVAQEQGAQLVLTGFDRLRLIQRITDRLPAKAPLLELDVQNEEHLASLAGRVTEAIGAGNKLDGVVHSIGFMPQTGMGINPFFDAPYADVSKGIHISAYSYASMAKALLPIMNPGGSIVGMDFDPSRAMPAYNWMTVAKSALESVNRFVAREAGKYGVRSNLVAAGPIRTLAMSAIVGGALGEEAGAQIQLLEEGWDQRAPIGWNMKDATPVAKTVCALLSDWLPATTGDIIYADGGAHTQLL

[3] = target: InhA with cofactor (NADH or NAD+) (Mycobacterium tuberculosis, UniProt P9WGR1); assay type: binding
Chain of InhA with cofactor (NADH or NAD+) (P9WGR1 whole entry, looked up): as above

InhA-NADH complex = InhA-NADH complex (Mycobacterium tuberculosis, UniProt P9WGR1); assay: biochemical; assay type: binding
Chain of InhA-NADH complex (P9WGR1 whole entry, looked up, one chain of several): as the sequence (P9WGR1 whole entry, looked up) above

[4] = target: apo-InhA, InhA-NAD+ complex (Mycobacterium tuberculosis, UniProt P9WGR1); assay type: binding
Chain of apo-InhA, InhA-NAD+ complex (P9WGR1 whole entry, looked up, one chain of several): as the sequence (P9WGR1 whole entry, looked up) above

mycolates = assay type: cell-based, Mycobacterium tuberculosis
Mtb H37Rv [5] = conditions: cited from earlier work
InhA [6] = target: T1, InhA; conditions: read-out: InhA IC50; cited from earlier work
in vitro replicating Mtb = assay type: cell-based, Mycobacterium tuberculosis
Mtb H37Rv [7] = tested on: Mtb H37Rv; parameters: species or system BALB/c mice; conditions: mouse, in vivo

CC(C)Cc1cc(O)c(-c2ccccc2)c(=O)[nH]1 [NITD-529, 4-hydroxy-6-isobutyl-3-phenylpyridin-2(1H)-one]
Mtb MIC50 (Mtb H37Rv [1]): 1.54 µM | MIC50 (Mtb H37Rv [1]; 120 h, read-out: Mtb MIC50): 1.5 µM (≈ 0.365 µg/mL) | MIC50 (Mtb H37Rv [1]; read-out: Compound MIC50): 1.54 µM (≈ 0.375 µg/mL) | IC50 (InhA [2]): 9.6 ± 0.7 µM | Thermaflor assay Tm, E-NAD+-I [3]: 50.3 °C | Thermaflor assay Tm, E-NADH-I [3]: 54.7 °C | Thermaflor assay ΔTm [3]: 4.4 °C | ITC (+NADH) N (InhA-NADH complex): 0.97 ± 0.23 | Kd (InhA-NADH complex): 25 ± 7 µM | ITC (+NADH) ΔH (InhA-NADH complex; 25°C): 13.1 ± 4.202 kcal/mol | ITC (+NADH) ΔS (InhA-NADH complex; 25°C): -0.0229 kcal/mol | ITC binding to InhA [4]: no binding was observed | effect on mycolates (mycolates): dose-dependent inhibition of mycolates

O=[N+]([O-])c1cn2c(n1)OC[C@@H](OCc1ccc(OC(F)(F)F)cc1)C2 [PA-824]
MIC50 (Mtb H37Rv [5]): 0.4 µM (≈ 0.144 µg/mL)

c1ccc(Oc2ccccc2)cc1 [PT70]
Thermaflor assay Tm, E-NAD+-I [3]: 66.7 °C | Thermaflor assay Tm, E-NADH-I [3]: 60.1 °C | Thermaflor assay ΔTm [3]: -6.6 °C | Mtb MIC50 (Mtb H37Rv [5]): 11 ^a μM | IC50 (InhA [6]): < 0.05 µM

COc1nc2ccc(Br)cc2cc1[C@@H](c1ccccc1)[C@@](O)(CCN(C)C)c1cccc2ccccc12 [bedaquiline]
MIC50 (Mtb H37Rv [5]): 0.05 µM (≈ 0.0278 µg/mL)

CCc1cc(C(N)=S)ccn1 [ethionamide]
MIC50 (Mtb H37Rv [1]; read-out: Compound MIC50): 1.66 µM (≈ 0.276 µg/mL)

NNC(=O)c1ccncc1 [isoniazid]
MIC50 (Mtb H37Rv [1]; read-out: Compound MIC50): 0.25 µM (≈ 0.0343 µg/mL) | concentration showing rapid killing (in vitro cidal-activity profile) (in vitro replicating Mtb): 0.5 µM | efficacy compared with reference drugs / NITD-916 (Mtb H37Rv [7]): significantly more potent than NITD-916 | MIC50 (Mtb H37Rv [5]): 0.33 µM (≈ 0.0453 µg/mL)

CO[C@H]1/C=C/O[C@@]2(C)Oc3c(C)c(O)c4c(O)c(c(/C=N/N5CCN(C)CC5)c(O)c4c3C2=O)NC(=O)/C(C)=C\C=C\[C@H](C)[C@H](O)[C@@H](C)[C@@H](O)[C@@H](C)[C@H](OC(C)=O)[C@@H]1C [rifampicin]
efficacy compared with reference drugs / NITD-916 (Mtb H37Rv [7]): significantly more potent than NITD-916

[H]/N=C(/N)N[C@H]1[C@H](O)[C@@H](O)[C@H](O[C@@H]2O[C@@H](C)[C@](O)(C=O)[C@H]2O[C@@H]2O[C@@H](CO)[C@H](O)[C@@H](O)[C@@H]2NC)[C@@H](N/C(N)=N\[H])[C@@H]1O [streptomycin]
MIC50 (Mtb H37Rv [1]; read-out: Compound MIC50): 0.08 µM (≈ 0.0465 µg/mL)
